Test results taken from patent publication US20240343717A1, “MICROBIOCIDAL PYRAZOLE DERIVATIVES” (SYNGENTA CROP PROTECTION AG, priority 2021, published 2024).

Tests used:
[1] = test system: Botryotinia fuckeliana (Botrytis cinerea); test: Botryotinia fuckeliana (Botrytis cinerea) / liquid culture (gray mould); assay type: cell-based; conditions: growth inhibition photometrically 3-4 days after application, read-out: control of Botryotinia fuckeliana
Summary of the method: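 Conidia suspended in Vogels broth and added to compound dispensed from DMSO. Incubated at 24°C, with growth inhibition measured photometrically 3–4 days later.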

[2] = test system: Glomerella lagenarium (Colletotrichum lagenarium); test: Glomerella lagenarium (Colletotrichum lagenarium) / liquid culture (anthracnose); assay type: cell-based; conditions: Colletotrichum orbiculare, growth inhibition photometrically 3-4 days after application, read-out: control of Glomerella lagenarium
Summary of the method: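 Cryo-stored conidia in potato dextrose broth were added to test compound in DMSO. Plates were incubated at 24° C, and growth inhibition was read photometrically 3-4 days after application.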

[3] = test system: Blumeria graminis f. sp. tritici (Erysiphe graminis f. sp. tritici); test: Blumeria graminis f. sp. tritici / wheat / leaf disc preventative (powdery mildew on wheat); assay type: in vivo; conditions: foliar, wheat leaf segments, inoculated 1 day after application
Description: Example B4: Blumeria graminis f. Sp. Tritici (Erysiphe graminis f. Sp. Tritici)/Wheat/Leaf Disc Preventative (Powdery Mildew on Wheat) Wheat leaf segments cv. Kanzler are placed on agar in a multiwell plate (24-well format) and sprayed with the formulated test compound diluted in water. The leaf disks are inoculated by shaking powdery mildew infected plants above the test plates 1 day after application. The inoculated leaf disks are incubated at 20° C. and 60% rh under a light regime of 24 h darkness followed by 12 h light/12 h darkness in a climate chamber and the activity of a compound is assessed as percent disease control compared to untreated when an appropriate level of disease damage appears on untreated check leaf segments (6-8 days after application).

[4] = test system: Phaeosphaeria nodorum (Septoria nodorum); test: Phaeosphaeria nodorum (Septoria nodorum) / wheat / leaf disc preventative (glume blotch); assay type: in vivo; conditions: Parastagonospora nodorum, foliar, wheat leaf segments, inoculated 2 days after application
Description: Example B8: Phaeosphaeria nodorum (Septoria nodorum)/Wheat/Leaf Disc Preventative (Glume Blotch) Wheat leaf segments cv. Kanzler are placed on agar in a multiwell plate (24-well format) and sprayed with the formulated test compound diluted in water. The leaf disks are inoculated with a spore suspension of the fungus 2 days after application. The inoculated test leaf disks are incubated at 20° C. and 75% rh under a light regime of 12 h light/12 h darkness in a climate cabinet and the activity of a compound is assessed as percent disease control compared to untreated when an appropriate level of disease damage appears in untreated check leaf disks (5-7 days after application).

[5] = test system: Monographella nivalis (Microdochium nivale); test: Monographella nivalis (Microdochium nivale) / liquid culture (foot rot cereals); assay type: cell-based; conditions: growth inhibition photometrically 4-5 days after application, read-out: control of Monographella nivalis
Summary of the method: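 Fungal conidia mixed directly into potato dextrose broth and added to test compound delivered in DMSO. Incubated at 24° C; growth inhibition read photometrically 4-5 days after application.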

[6] = test system: Mycosphaerella arachidis (Cercospora arachidicola); test: Mycosphaerella arachidis (Cercospora arachidicola) / liquid culture (early leaf spot); assay type: cell-based; conditions: growth inhibition photometrically 4-5 days after application, read-out: control of Mycosphaerella arachidis
Summary of the method: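 Spores taken straight from cryostorage are suspended in potato dextrose broth and added to test compound in DMSO. Plates are incubated at 24° C. Growth inhibition is scored photometrically 4-5 days after application.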

Pyrenophora teres = Pyrenophora teres / barley / leaf disc preventative (net blotch); assay type: in vivo; conditions: foliar, barley leaf segments, inoculated 2 days after application
Summary of the method: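 Barley cv. Hasso leaf segments on agar sprayed with formulated compound, inoculated with spores 2 days later. Incubated at 20 °C, 65% rh, 12 h light/dark; disease control versus untreated assessed 5–7 days after application.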

[7] = test system: Mycosphaerella graminicola (Septoria tritici); test: Mycosphaerella graminicola (Septoria tritici) / liquid culture (Septoria blotch); assay type: cell-based; conditions: Zymoseptoria tritici, growth inhibition photometrically 4-5 days after application, read-out: control of Mycosphaerella graminicola
Summary of the method: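 Conidia suspended in potato dextrose broth and added to test compound supplied in DMSO in 96-well plates. Incubated at 24 °C, and growth inhibition read photometrically 4-5 days after application.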

Alternaria solani = Alternaria solani / tomato / leaf disc (early blight); assay type: in vivo; conditions: foliar, tomato leaf disks, sprayed 2 days before inoculation, compared to untreated control
Description: Example B1: Alternaria solani/Tomato/Leaf Disc (Early Blight) Tomato leaf disks cv. Baby are placed on agar in multiwell plates (24-well format) and sprayed with the formulated test compound diluted in water. The leaf disks are inoculated with a spore suspension of the fungus 2 days after application. The inoculated leaf disks are incubated at 23° C./21° C.

Fusarium culmorum = test: microbe, parasite or virus in culture; assay type: cell-based; conditions: read-out: control of Fusarium culmorum
Sclerotinia sclerotiorum = Sclerotinia sclerotiorum / liquid culture (cottony rot); assay type: cell-based; conditions: growth inhibition photometrically 3-4 days after application, read-out: control of Sclerotinia sclerotiorum
Description: Example B15: Sclerotinia sclerotiorum/Liquid Culture (Cottony Rot) Mycelia fragments of a newly grown liquid culture of the fungus are directly mixed into nutrient broth (PDB potato dextrose broth). After placing a (DMSO) solution of test compound into a microtiter plate (96-well format) the nutrient broth containing the fungal material is added. The test plates are incubated at 24° C. and the inhibition of growth is determined photometrically 3-4 days after application.

[8] = test system: Gibberella zeae (Fusarium graminearum); test: whole plant or invertebrate; assay type: in vivo; conditions: in Triticum aestivum, read-out: control of Gibberella zeae

Structure (SMILES) | inhibition of growth at 20 ppm [1] | inhibition of growth at 20 ppm [2] | pest or weed control at 200 ppm [3] | pest or weed control at 200 ppm [4] | inhibition of growth at 20 ppm [5] | inhibition of growth at 20 ppm [6] | pest or weed control at 200 ppm (Pyrenophora teres) | inhibition of growth at 20 ppm [7] | melting point | pest or weed control at 200 ppm (Alternaria solani) | inhibition of growth at 20 ppm (Fusarium culmorum) | inhibition of growth at 20 ppm (Sclerotinia sclerotiorum) | pest or weed control at 200 ppm [8]
Cn1ncc(C(CNC(=O)c2cc(-c3ccc(F)cc3F)on2)c2cccc(Cl)n2)c1Cl (centres unmarked) [Compound P-69, N-[2-(5-chloro-1-methyl-pyrazol-4-yl)-2-(6-chloro-2-pyridyl)ethyl]-5-(2,4-difluorophenyl) isoxazole-3-carboxamide] | ≥ 80% | ≥ 80% | ≥ 80% | ≥ 80% | ≥ 80% | ≥ 80% | ≥ 80% | ≥ 80% | 113 to 115 °C | – | – | – | –
Cn1cc(C(C)(CNC(=O)c2nnc(-c3ccc(F)cc3F)s2)c2cccc(C(F)(F)F)n2)cn1 (centres unmarked) [Compound P-107, 5-(2,4-difluorophenyl)-N-[2-(1-methylpyrazol-4-yl)-2-[6-(trifluoromethyl)-2-pyridyl]propyl]-1,3,4-thiadiazole-2-carboxamide] | ≥ 80% | ≥ 80% | ≥ 80% | – | ≥ 80% | ≥ 80% | ≥ 80% | ≥ 80% | 162 to 163 °C | ≥ 80% | ≥ 80% | ≥ 80% | –
Cc1cc(-c2cc(C(=O)NCC(C)(c3cnn(C)c3)c3cccc(Cl)n3)no2)n(C)n1 (centres unmarked) [Compound P-85, N-[2-(6-chloro-2-pyridyl)-2-(1-methylpyrazol-4-yl)propyl]-5-(2,5-dimethylpyrazol-3-yl)isoxazole-3-carboxamide] | – | ≥ 80% | ≥ 80% | – | – | – | ≥ 80% | ≥ 80% | 182 to 184 °C | – | – | – | –
Cn1cc(C(C)(CNC(=O)c2nnc(-c3ccc(F)cc3F)s2)c2cccc(Cl)n2)cn1 (centres unmarked) [Compound P-9, N-[2-(6-chloro-2-pyridyl)-2-(1-methylpyrazol-4-yl)propyl]-5-(2,4-difluorophenyl)-1,3,4-thiadiazole-2-carboxamide] | ≥ 80% | ≥ 80% | ≥ 80% | ≥ 80% | ≥ 80% | ≥ 80% | ≥ 80% | ≥ 80% | – | ≥ 80% | ≥ 80% | ≥ 80% | ≥ 80%
Cn1ncc(C(CNC(=O)c2nnc(-c3ccc(F)cc3F)s2)c2cccc(Cl)n2)c1Cl (centres unmarked) [Compound P-116, N-[2-(5-chloro-1-methyl-pyrazol-4-yl)-2-(6-chloro-2-pyridyl)ethyl]-5-(2,4-difluorophenyl)-1,3,4-thiadiazole-2-carboxamide] | ≥ 80% | ≥ 80% | – | – | ≥ 80% | ≥ 80% | – | ≥ 80% | 150 to 151 °C | – | ≥ 80% | – | –
CO/N=C(\C)c1ccnc(C(C)(CNC(=O)c2cc(-c3ccc(F)cc3F)on2)c2cnn(C)c2)c1 (centres unmarked) [Compound P-72, 5-(2,4-difluorophenyl)-N-[2-[4-[(E)-N-methoxy-C-methyl-carbonimidoyl]-2-pyridyl]-2-(1-methylpyrazol-4-yl)propyl]isoxazole-3-carboxamide] | – | – | – | – | ≥ 80% | – | – | – | 88 to 90 °C | – | – | – | –
Cn1cc(C(C)(CNC(=O)c2cc(-c3cccn3C)on2)c2cccc(Cl)n2)cn1 (centres unmarked) [Compound P-81, N-[2-(6-chloro-2-pyridyl)-2-(1-methylpyrazol-4-yl)propyl]-5-(1-methylpyrrol-2-yl)isoxazole-3-carboxamide] | ≥ 80% | ≥ 80% | – | – | ≥ 80% | ≥ 80% | – | ≥ 80% | 111 to 113 °C | – | – | – | –
Cn1cc(C(C)(CNC(=O)c2cc(-c3ccc(F)cc3F)on2)c2cc(C#N)ccn2)cn1 (centres unmarked) [Compound P-63, N-[2-(4-cyano-2-pyridyl)-2-(1-methylpyrazol-4-yl)propyl]-5-(2,4-difluorophenyl) isoxazole-3-carboxamide] | – | – | – | – | – | – | ≥ 80% | ≥ 80% | 156 to 158 °C | – | – | – | –
Cn1cc(C(C)(CNC(=O)c2cc(C3CCCC3)on2)c2cccc(Cl)n2)cn1 (centres unmarked) [Compound P-80, N-[2-(6-chloro-2-pyridyl)-2-(1-methylpyrazol-4-yl)propyl]-5-cyclopentyl-isoxazole-3-carboxamide] | ≥ 80% | ≥ 80% | – | – | ≥ 80% | ≥ 80% | ≥ 80% | ≥ 80% | – | ≥ 80% | ≥ 80% | – | ≥ 80%
COc1ccc(C(C)(CNC(=O)c2cc(-c3ccc(F)cc3F)on2)c2cnn(C)c2)nc1Cl (centres unmarked) [Compound P-14, N-[2-(6-chloro-5-methoxy-2-pyridyl)-2-(1-methylpyrazol-4-yl)propyl]-5-(2,4-difluorophenyl) isoxazole-3-carboxamide] | – | – | – | – | – | – | – | ≥ 80% | 196 to 199 °C | – | – | – | –
Cn1cc(C(C)(CNC(=O)c2nnc(-c3ccc(F)cc3F)s2)c2cccc(C#N)n2)cn1 (centres unmarked) [Compound P-115, N-[2-(6-cyano-2-pyridyl)-2-(1-methylpyrazol-4-yl)propyl]-5-(2,4-difluorophenyl)-1,3,4-thiadiazole-2-carboxamide] | ≥ 80% | ≥ 80% | – | – | ≥ 80% | ≥ 80% | – | ≥ 80% | 169 to 170 °C | – | ≥ 80% | – | –
Cn1cc(C(C)(CNC(=O)c2cc(-c3ccc(F)cc3F)on2)c2cccc(C(F)(F)F)n2)cn1 (centres unmarked) [Compound P-106, 5-(2,4-difluorophenyl)-N-[2-(1-methylpyrazol-4-yl)-2-[6-(trifluoromethyl)-2-pyridyl]propyl] isoxazole-3-carboxamide] | ≥ 80% | ≥ 80% | – | – | ≥ 80% | ≥ 80% | – | ≥ 80% | 160 to 165 °C | ≥ 80% | ≥ 80% | ≥ 80% | –
Cn1cc([C@@](C)(CNC(=O)c2cc(-c3ccc(F)cc3F)on2)c2cccc(Cl)n2)cn1 [Compound P-30, N-[(2S)-2-(6-chloro-2-pyridyl)-2-(1-methylpyrazol-4-yl)propyl]-5-(2,4-difluorophenyl) isoxazole-3-carboxamide] | – | – | – | – | – | – | – | – | – | – | – | – | ≥ 80%
